# Measured values taken from the SangsterLogP compilation.
# Assay: method code SF-AS, from PMID: 7312925
row,logP,SMILES
1,-0.3,Cc1cc(O)c(O)nn1
2,0.13,Cc1cc(S)c(N)nn1
3,-1.22,Cc1cc(OCC(=O)O)c(Cl)nn1
4,-0.82,Cc1cc(O)c(Cl)nn1
5,-0.89,CC(=O)Nc1nnc(C)cc1O
6,-0.85,Cc1cc(O)c(N)nn1
7,-0.32,Cc1cc(C)c(N)nn1
8,0.24,Cc1cc(O)c(N(C)C)nn1

# The next lines start with the compound.
row,SMILES,logP
1,Cc1cc(C)c(NN(C=O)Cc2ccccc2)nn1,0.61
2,CCOc1cc(=O)c2nncn2[nH]1,0.02
3,Cc1cc(=O)c2nncn2[nH]1,-0.21
4,Cc1[nH]n2cnnc2c(=O)c1N,-0.52
5,Cc1[nH]n2cnnc2c(=O)c1N=O,-1.1
6,Cc1[nH]n2cnnc2c(=O)c1Br,-0.68
7,Cc1cc(O)c(N2CCOCC2)nn1,-0.06
8,Cc1cc(C)c(N/N=C\c2ccccc2)nn1,0.93
